Measurements reported in the CheMixHub viscosity set.

Assay: xn = mol fraction of the nth substance listed

OCCOc1ccccc1 + CCCCCCO
viscosity [mPa·s], 101 kPa
Settings	x2 = 0.1	x2 = 0.201	x2 = 0.301	x2 = 0.401	x2 = 0.501	x2 = 0.601	x2 = 0.701	x2 = 0.801	x2 = 0.9
303.15 K	10.95	9.244	8.099	7.25	6.508	5.696	4.981	4.335	3.978
313.15 K	7.906	7.005	6.239	5.548	4.764	4.151	3.605	3.222	2.981
323.15 K	5.285	4.821	4.389	3.866	3.518	3.128	2.716	2.358	2.148

CCCCCCCCCCCCCC[P+](CCCCCC)(CCCCCC)CCCCCC.c1nnc[n-]1 + CCCCCCn1cc[n+](C)c1.O=S(=O)([N-]S(=O)(=O)C(F)(F)F)C(F)(F)F
viscosity [mPa·s], 100 kPa
Settings	x1 = 0.107	x1 = 0.208	x1 = 0.307	x1 = 0.4	x1 = 0.507	x1 = 0.622	x1 = 0.718	x1 = 0.805	x1 = 0.9
293.15 K	132	220	308	452	677	901	1162	1349	1458
298.15 K	103	165	227	329	485	633	811	932	1013
303.15 K	81	127	171	245	355	456	579	664	720
308.15 K	65	99	132	186	267	337	422	484	524
313.15 K	54	79	104	145	204	253	314	359	389
318.15 K	–	64	83	115	159	194	239	273	296
323.15 K	–	53	67	93	127	152	185	211	229

CC(=O)CC(C)C + CCCCCO
viscosity [mPa·s]
Settings	x1 = 0.1011	x1 = 0.1974	x1 = 0.304	x1 = 0.4023	x1 = 0.5022	x1 = 0.6064	x1 = 0.7079	x1 = 0.7955	x1 = 0.8962
298.15 K, 101 kPa	2.47	1.89	1.46	1.2	1	0.856	0.738	0.668	0.592
298.15 K, 101.3 kPa	2.47	1.89	1.46	1.2	1	0.856	0.738	0.668	0.592
303.15 K, 101.3 kPa	2.2	1.7	1.32	1.1	0.919	0.792	0.694	0.624	0.558
308.15 K, 101.3 kPa	1.96	1.53	1.2	1.01	0.846	0.735	0.646	0.589	0.53
313.15 K, 101.3 kPa	1.75	1.38	1.09	0.915	0.781	0.683	0.601	0.555	0.501
